Measurements: patent US9611249B2, “1H-indazole-3-carboxamide compounds as glycogen synthase kinase 3 beta inhibitors” (AZIENDE CHIMICHE RIUNITE ANGELINI FRANCESCO A.C.R.A.F. …, priority 2012, dated 2017)

Legend:
[1] = molecular target: EphA4 kinase (h) (Homo sapiens (Human), UniProt P54764); assay: Kinase selectivity panel: EphA4 kinase (h); type: biochemical; details: 10 μM in duplicate, read-out: % inhibition of control values
Protocol: (§1) (a) Compounds 1 and 2 were tested against a panel of 60 kinases in order to assess their selectivity. The assays were chosen taking into consideration the diversity of assay families.
(§2) Tested kinases were representative of following kinase sub-families: • protein-serine/threonine kinases; • protein-tyrosine kinases; • other kinases; and • atypical kinases.
(§3) Human recombinant kinases were incubated in the presence of specific peptide substrates plus ATP for different times (10, 15, 30, 60 or 90 minutes) at 22° C. Phosphorylated substrate was detected by LANCE or HTRF technology (CISBIO, MA, USA). The compounds were tested at 10 μM in duplicate.
(§4) The results are expressed as a percentage of inhibition of control specific activity obtained in the presence of the test compounds and are reported in the following Table 5.
(§5) (b) Compounds 3, 8, 29 and 31 were tested against the same panel of 60 kinases under the same conditions described above for compounds 1 and 2.
(§6) The results are expressed as a percent of inhibition of control specific activity obtained in the presence of the test compounds and are reported in the following Table 6.

[2] = molecular target: FGFR1 kinase (h) (Homo sapiens (Human), UniProt P11362); assay: Kinase selectivity panel: FGFR1 kinase (h); type: biochemical; details: 10 μM in duplicate, read-out: % inhibition of control values
Protocol: as §1, §2, §3, §4, §5, §6

[3] = molecular target: FGFR4 kinase (h) (Homo sapiens (Human), UniProt P22455); assay: Kinase selectivity panel: FGFR4 kinase (h); type: biochemical; details: 10 μM in duplicate, read-out: % inhibition of control values
Protocol: as §1, §2, §3, §4, §5, §6

[4] = molecular target: IGF1R kinase (h) (Homo sapiens (Human), UniProt P08069); assay: Kinase selectivity panel: IGF1R kinase (h); type: biochemical; details: 10 μM in duplicate, read-out: % inhibition of control values
Protocol: as §1, §2, §3, §4, §5, §6

[5] = molecular target: Ret kinase (h) (Homo sapiens (Human), UniProt P07949); assay: Kinase selectivity panel: Ret kinase (h); type: biochemical; details: 10 μM in duplicate, read-out: % inhibition of control values
Protocol: as §1, §2, §3, §4, §5, §6

[6] = molecular target: JAK2 (h) (Homo sapiens (Human), UniProt O60674); assay: Kinase selectivity panel: JAK2 (h); type: biochemical; details: 10 μM in duplicate, read-out: % inhibition of control values
Protocol: as §1, §2, §3, §4, §5, §6

[7] = molecular target: Fyn kinase (h) (Homo sapiens (Human), UniProt P06241); assay: Kinase selectivity panel: Fyn kinase (h); type: biochemical; details: 10 μM in duplicate, read-out: % inhibition of control values
Protocol: as §1, §2, §3, §4, §5, §6

[8] = molecular target: Src kinase (h) (Homo sapiens (Human), UniProt P12931); assay: Kinase selectivity panel: Src kinase (h); type: biochemical; details: 10 μM in duplicate, read-out: % inhibition of control values
Protocol: as §1, §2, §3, §4, §5, §6

[9] = molecular target: DYRK1a (h) (Homo sapiens (Human), UniProt Q13627); assay: Kinase selectivity panel: DYRK1a (h); type: biochemical; details: 10 μM in duplicate, read-out: % inhibition of control values
Protocol: as §1, §2, §3, §4, §5, §6

[10] = molecular target: PCTAIRE1 kinase (h) (Homo sapiens (Human), UniProt Q00536); assay: Kinase selectivity panel: PCTAIRE1 kinase (h); type: biochemical; details: 10 μM in duplicate, read-out: % inhibition of control values
Protocol: as §1, §2, §3, §4, §5, §6

[11] = molecular target: CDC2/CDK1 (h) (cycB) (Homo sapiens (Human), UniProt P06493); assay: Kinase selectivity panel: CDC2/CDK1 (h) (cycB); type: biochemical; details: 10 μM in duplicate, read-out: % inhibition of control values
Protocol: as §1, §2, §3, §4, §5, §6

[12] = molecular target: CDK2 (h) (cycA) (Homo sapiens (Human), UniProt P24941); assay: Kinase selectivity panel: CDK2 (h) (cycA); type: biochemical; details: 10 μM in duplicate, read-out: % inhibition of control values
Protocol: as §1, §2, §3, §4, §5, §6

[13] = molecular target: CDK5/p35 (h) (Homo sapiens (Human), UniProt Q00535); assay: Kinase selectivity panel: CDK5/p35 (h); type: biochemical; details: 10 μM in duplicate, read-out: % inhibition of control values
Protocol: as §1, §2, §3, §4, §5, §6

[14] = molecular target: p38alpha kinase (h) (Homo sapiens (Human), UniProt Q16539); assay: Kinase selectivity panel: p38alpha kinase (h); type: biochemical; details: 10 μM in duplicate, read-out: % inhibition of control values
Protocol: as §1, §2, §3, §4, §5, §6

[15] = molecular target: p38delta kinase (h) (Homo sapiens (Human), UniProt O15264); assay: Kinase selectivity panel: p38delta kinase (h); type: biochemical; details: 10 μM in duplicate, read-out: % inhibition of control values
Protocol: as §1, §2, §3, §4, §5, §6

[16] = molecular target: CHK1 (h) (Homo sapiens (Human), UniProt O14757); assay: Kinase selectivity panel: CHK1 (h); type: biochemical; details: 10 μM in duplicate, read-out: % inhibition of control values
Protocol: as §1, §2, §3, §4, §5, §6

[17] = test system: AMPKalpha; assay: Kinase selectivity panel: AMPKalpha; type: biochemical, human; details: 10 μM in duplicate
Protocol: as §1, §2, §3, §4, §5, §6

[18] = molecular target: CaMK4 (h) (Homo sapiens (Human), UniProt Q16566); assay: Kinase selectivity panel: CaMK4 (h); type: biochemical; details: 10 μM in duplicate, read-out: % inhibition of control values
Protocol: as §1, §2, §3, §4, §5, §6

[19] = molecular target: DAPK1 (h) (Homo sapiens (Human), UniProt P53355); assay: Kinase selectivity panel: DAPK1 (h); type: biochemical; details: 10 μM in duplicate, read-out: % inhibition of control values
Protocol: as §1, §2, §3, §4, §5, §6

[20] = molecular target: Pim2 kinase (h) (Homo sapiens (Human), UniProt Q9P1W9); assay: Kinase selectivity panel: Pim2 kinase (h); type: biochemical; details: 10 μM in duplicate, read-out: % inhibition of control values
Protocol: as §1, §2, §3, §4, §5, §6

[21] = molecular target: MNK2 (h) (Homo sapiens (Human), UniProt Q9HBH9); assay: Kinase selectivity panel: MNK2 (h); type: biochemical; details: 10 μM in duplicate, read-out: % inhibition of control values
Protocol: as §1, §2, §3, §4, §5, §6

[22] = molecular target: PhKgamma 2 (h) (Homo sapiens (Human), UniProt P15735); assay: Kinase selectivity panel: PhKgamma 2 (h); type: biochemical; details: 10 μM in duplicate, read-out: % inhibition of control values
Protocol: as §1, §2, §3, §4, §5, §6

[23] = molecular target: PDK1 (h) (Homo sapiens (Human), UniProt O15530); assay: Kinase selectivity panel: PDK1 (h); type: biochemical; details: 10 μM in duplicate, read-out: % inhibition of control values
Protocol: as §1, §2, §3, §4, §5, §6

[24] = molecular target: PKCbeta 1 (h) (Homo sapiens (Human), UniProt P05771); assay: Kinase selectivity panel: PKCbeta 1 (h); type: biochemical; details: 10 μM in duplicate, read-out: % inhibition of control values
Protocol: as §1, §2, §3, §4, §5, §6

[25] = molecular target: PKCgamma (h) (Homo sapiens (Human), UniProt P05129); assay: Kinase selectivity panel: PKCgamma (h); type: biochemical; details: 10 μM in duplicate, read-out: % inhibition of control values
Protocol: as §1, §2, §3, §4, §5, §6

[26] = molecular target: PAK1 (h) (Homo sapiens (Human), UniProt Q13153); assay: Kinase selectivity panel: PAK1 (h); type: biochemical; details: 10 μM in duplicate, read-out: % inhibition of control values
Protocol: as §1, §2, §3, §4, §5, §6

[27] = molecular target: HGK (h) (MAP4K4) (Homo sapiens (Human), UniProt O95819); assay: Kinase selectivity panel: HGK (h) (MAP4K4); type: biochemical; details: 10 μM in duplicate, read-out: % inhibition of control values
Protocol: as §1, §2, §3, §4, §5, §6

[28] = molecular target: DLK1 (h) (MAP3K12) (Homo sapiens (Human), UniProt Q12852); assay: Kinase selectivity panel: DLK1 (h) (MAP3K12); type: biochemical; details: 10 μM in duplicate, read-out: % inhibition of control values
Protocol: as §1, §2, §3, §4, §5, §6

[29] = molecular target: IKKalpha (h) (Homo sapiens (Human), UniProt O15111); assay: Kinase selectivity panel: IKKalpha (h); type: biochemical; details: 10 μM in duplicate, read-out: % inhibition of control values
Protocol: as §1, §2, §3, §4, §5, §6

[30] = molecular target: IKKepsilon (h) (IKBKE) (Homo sapiens (Human), UniProt Q14164); assay: Kinase selectivity panel: IKKepsilon (h) (IKBKE); type: biochemical; details: 10 μM in duplicate, read-out: % inhibition of control values
Protocol: as §1, §2, §3, §4, §5, §6

[31] = molecular target: MYT1 kinase (h) (Homo sapiens (Human), UniProt Q99640); assay: Kinase selectivity panel: MYT1 kinase (h); type: biochemical; details: 10 μM in duplicate, read-out: % inhibition of control values
Protocol: as §1, §2, §3, §4, §5, §6

[32] = molecular target: NEK7 (h) (Homo sapiens (Human), UniProt Q8TDX7); assay: Kinase selectivity panel: NEK7 (h); type: biochemical; details: 10 μM in duplicate, read-out: % inhibition of control values
Protocol: as §1, §2, §3, §4, §5, §6

[33] = molecular target: AurB/Aur1 kinase (h) (Homo sapiens (Human), UniProt Q96GD4); assay: Kinase selectivity panel: AurB/Aur1 kinase (h); type: biochemical; details: 10 μM in duplicate, read-out: % inhibition of control values
Protocol: as §1, §2, §3, §4, §5, §6

PCTAIRE1 kinase (h), sequence (Q00536 whole entry): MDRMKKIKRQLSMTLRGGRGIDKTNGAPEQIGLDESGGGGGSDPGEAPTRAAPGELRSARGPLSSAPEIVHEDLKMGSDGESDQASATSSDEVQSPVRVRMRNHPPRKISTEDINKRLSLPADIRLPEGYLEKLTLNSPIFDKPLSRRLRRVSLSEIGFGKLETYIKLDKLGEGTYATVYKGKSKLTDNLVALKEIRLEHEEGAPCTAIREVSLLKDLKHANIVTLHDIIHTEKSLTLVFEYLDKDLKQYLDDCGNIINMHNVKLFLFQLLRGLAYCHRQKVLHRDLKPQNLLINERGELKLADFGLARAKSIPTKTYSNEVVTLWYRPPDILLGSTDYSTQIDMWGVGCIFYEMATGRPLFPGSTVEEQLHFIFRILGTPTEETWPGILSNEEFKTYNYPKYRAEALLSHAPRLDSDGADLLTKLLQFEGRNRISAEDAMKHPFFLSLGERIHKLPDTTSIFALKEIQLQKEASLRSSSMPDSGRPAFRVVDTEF
CDK5/p35 (h), sequence (Q00535 whole entry): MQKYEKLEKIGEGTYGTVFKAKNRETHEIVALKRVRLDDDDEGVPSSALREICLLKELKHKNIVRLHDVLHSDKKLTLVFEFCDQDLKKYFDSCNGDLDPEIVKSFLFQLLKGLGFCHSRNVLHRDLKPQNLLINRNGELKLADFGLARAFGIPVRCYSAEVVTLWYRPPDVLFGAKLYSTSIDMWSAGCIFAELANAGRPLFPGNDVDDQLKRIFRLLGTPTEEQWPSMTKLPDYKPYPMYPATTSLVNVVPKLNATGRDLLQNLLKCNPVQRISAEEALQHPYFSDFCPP
CDK5/p35 (h), sequence (Q15078 whole entry partner): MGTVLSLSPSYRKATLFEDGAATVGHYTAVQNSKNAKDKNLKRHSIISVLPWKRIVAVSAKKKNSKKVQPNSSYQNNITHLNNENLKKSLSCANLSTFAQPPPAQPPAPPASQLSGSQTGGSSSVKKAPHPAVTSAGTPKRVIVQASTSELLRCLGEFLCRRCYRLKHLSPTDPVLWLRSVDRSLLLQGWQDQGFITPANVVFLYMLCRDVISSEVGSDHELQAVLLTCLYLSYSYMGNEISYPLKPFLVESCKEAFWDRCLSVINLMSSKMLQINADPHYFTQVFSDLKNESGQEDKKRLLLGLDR
PAK1 (h), sequence (Q13153 whole entry): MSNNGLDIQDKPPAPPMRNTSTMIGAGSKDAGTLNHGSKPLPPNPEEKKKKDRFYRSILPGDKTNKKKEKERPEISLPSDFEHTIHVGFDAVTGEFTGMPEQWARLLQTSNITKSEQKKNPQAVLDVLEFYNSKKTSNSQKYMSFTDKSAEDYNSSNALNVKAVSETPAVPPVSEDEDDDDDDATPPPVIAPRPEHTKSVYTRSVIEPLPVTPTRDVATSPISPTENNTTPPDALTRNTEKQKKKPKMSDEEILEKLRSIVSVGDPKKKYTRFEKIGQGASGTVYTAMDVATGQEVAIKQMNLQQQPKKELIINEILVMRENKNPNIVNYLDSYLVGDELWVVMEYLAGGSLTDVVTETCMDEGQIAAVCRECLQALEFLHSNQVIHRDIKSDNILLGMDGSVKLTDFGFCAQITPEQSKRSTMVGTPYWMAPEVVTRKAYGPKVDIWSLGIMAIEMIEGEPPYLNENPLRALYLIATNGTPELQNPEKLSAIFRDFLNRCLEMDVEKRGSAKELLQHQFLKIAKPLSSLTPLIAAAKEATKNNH
PDK1 (h), sequence (O15530 whole entry): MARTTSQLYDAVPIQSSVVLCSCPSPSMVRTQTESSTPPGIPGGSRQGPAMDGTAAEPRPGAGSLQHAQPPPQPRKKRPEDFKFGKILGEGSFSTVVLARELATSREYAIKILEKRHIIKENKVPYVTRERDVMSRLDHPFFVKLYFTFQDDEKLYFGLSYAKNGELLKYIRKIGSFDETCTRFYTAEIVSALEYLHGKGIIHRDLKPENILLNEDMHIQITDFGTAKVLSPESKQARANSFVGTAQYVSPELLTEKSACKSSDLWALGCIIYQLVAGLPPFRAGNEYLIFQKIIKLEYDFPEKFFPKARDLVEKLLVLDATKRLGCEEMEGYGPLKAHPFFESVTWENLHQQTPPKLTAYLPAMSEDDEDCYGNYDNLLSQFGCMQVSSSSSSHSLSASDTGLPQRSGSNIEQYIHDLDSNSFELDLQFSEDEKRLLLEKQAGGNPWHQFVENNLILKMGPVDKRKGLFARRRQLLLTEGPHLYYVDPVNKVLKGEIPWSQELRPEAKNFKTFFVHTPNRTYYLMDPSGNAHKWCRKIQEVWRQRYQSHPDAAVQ
IKKepsilon (h) (IKBKE), sequence (Q14164 whole entry): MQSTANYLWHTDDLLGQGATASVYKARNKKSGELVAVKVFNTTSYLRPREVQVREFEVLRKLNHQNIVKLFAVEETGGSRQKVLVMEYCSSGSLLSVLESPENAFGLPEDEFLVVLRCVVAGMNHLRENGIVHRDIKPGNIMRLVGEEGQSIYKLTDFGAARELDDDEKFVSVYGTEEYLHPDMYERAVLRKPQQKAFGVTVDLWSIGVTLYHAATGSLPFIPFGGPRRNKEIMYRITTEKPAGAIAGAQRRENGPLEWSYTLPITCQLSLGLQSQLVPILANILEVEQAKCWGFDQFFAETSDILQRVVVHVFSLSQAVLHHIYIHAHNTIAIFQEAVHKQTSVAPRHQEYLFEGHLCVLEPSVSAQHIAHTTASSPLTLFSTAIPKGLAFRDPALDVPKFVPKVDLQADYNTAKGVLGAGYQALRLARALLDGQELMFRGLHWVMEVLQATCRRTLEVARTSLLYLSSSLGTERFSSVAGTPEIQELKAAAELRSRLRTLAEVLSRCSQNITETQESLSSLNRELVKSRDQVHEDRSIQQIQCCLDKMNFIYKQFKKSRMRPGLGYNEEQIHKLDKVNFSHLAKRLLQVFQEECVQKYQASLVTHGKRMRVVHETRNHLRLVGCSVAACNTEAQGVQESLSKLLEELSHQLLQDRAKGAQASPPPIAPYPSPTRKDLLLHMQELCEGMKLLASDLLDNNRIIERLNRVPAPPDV
CDC2/CDK1 (h) (cycB), sequence (P06493 whole entry): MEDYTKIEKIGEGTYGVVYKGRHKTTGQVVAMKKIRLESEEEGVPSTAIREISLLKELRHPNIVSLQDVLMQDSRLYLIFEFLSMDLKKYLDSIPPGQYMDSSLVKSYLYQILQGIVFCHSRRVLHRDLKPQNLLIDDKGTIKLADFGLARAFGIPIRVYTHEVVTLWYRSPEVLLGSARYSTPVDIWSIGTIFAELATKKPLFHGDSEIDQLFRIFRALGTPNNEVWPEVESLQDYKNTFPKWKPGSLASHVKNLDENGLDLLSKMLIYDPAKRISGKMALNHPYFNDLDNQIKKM
CDC2/CDK1 (h) (cycB), sequence (P14635 whole entry partner): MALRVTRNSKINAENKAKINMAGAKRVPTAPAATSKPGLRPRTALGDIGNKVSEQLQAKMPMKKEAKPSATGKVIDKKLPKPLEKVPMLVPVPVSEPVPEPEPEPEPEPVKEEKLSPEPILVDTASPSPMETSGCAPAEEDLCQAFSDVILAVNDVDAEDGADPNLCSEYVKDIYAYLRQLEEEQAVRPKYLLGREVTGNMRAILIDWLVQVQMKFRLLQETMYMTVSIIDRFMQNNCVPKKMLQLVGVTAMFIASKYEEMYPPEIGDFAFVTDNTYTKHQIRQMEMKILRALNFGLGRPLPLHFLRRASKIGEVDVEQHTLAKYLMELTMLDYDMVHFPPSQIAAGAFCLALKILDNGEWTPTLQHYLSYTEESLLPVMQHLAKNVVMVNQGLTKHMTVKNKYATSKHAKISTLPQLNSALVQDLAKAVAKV
NEK7 (h), sequence (Q8TDX7 whole entry): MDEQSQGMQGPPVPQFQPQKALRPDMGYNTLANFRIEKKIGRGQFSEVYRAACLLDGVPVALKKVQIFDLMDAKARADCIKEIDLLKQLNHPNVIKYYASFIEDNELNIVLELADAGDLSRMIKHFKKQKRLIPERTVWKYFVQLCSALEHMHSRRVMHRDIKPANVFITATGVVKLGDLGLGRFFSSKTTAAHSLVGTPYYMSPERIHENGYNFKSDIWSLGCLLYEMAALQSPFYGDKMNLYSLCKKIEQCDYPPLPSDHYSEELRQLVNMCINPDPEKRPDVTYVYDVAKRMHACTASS
Pim2 kinase (h), sequence (Q9P1W9 whole entry): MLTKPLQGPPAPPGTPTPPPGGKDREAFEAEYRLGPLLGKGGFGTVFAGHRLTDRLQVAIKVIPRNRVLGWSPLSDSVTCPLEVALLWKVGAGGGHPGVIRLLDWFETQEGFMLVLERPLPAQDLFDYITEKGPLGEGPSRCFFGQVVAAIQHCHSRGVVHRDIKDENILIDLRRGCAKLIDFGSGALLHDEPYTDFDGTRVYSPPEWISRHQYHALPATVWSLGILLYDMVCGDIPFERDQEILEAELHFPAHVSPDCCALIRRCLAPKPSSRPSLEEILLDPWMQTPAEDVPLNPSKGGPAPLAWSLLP

Q: For `COCCN1CCC(CNC(=O)c2n[nH]c3ccc(-c4cccc(F)c4F)cc23)CC1` [Compound 8, 5-(2,3-difluorophenyl)-N-{[1-(2-methoxyethyl)piperidin-4-yl]methyl}-1H-indazole-3-carboxamide], which inhibition at 10 µM [1] is on record?
A: The inhibition at 10 µM was 0%.

Q: What about the inhibition at 10 µM [2] of the same compound?
A: Its inhibition at 10 µM is 8%.

Q: And the inhibition at 10 µM [3]?
A: Its inhibition at 10 µM is 2%.

Q: What about the inhibition at 10 µM [4] of the same compound?
A: Its inhibition at 10 µM is 3%.

Q: And the inhibition at 10 µM [5]?
A: Its inhibition at 10 µM is 0%.

Q: And the inhibition at 10 µM [6]?
A: Its inhibition at 10 µM is 23%.

Q: And the inhibition at 10 µM [7]?
A: Its inhibition at 10 µM is 0%.

Q: What about the inhibition at 10 µM [8] of the same compound?
A: Its inhibition at 10 µM is 0%.

Q: What about the inhibition at 10 µM [9] of the same compound?
A: The inhibition at 10 µM was 99%.

Q: What about the inhibition at 10 µM [10] of the same compound?
A: Its inhibition at 10 µM is 84%.

Q: And the inhibition at 10 µM [11]?
A: The inhibition at 10 µM was 80%.

Q: What about the inhibition at 10 µM [12] of the same compound?
A: The inhibition at 10 µM was 92%.

Q: And the inhibition at 10 µM [13]?
A: The inhibition at 10 µM was 77%.

Q: What about the inhibition at 10 µM [14] of the same compound?
A: The inhibition at 10 µM was 1%.

Q: What about the inhibition at 10 µM [15] of the same compound?
A: Its inhibition at 10 µM is 18%.

Q: And the inhibition at 10 µM [16]?
A: Its inhibition at 10 µM is 0%.

Q: What about the “% inhibition of control values” [17] of the same compound?
A: The value was 68%.

Q: What about the inhibition at 10 µM [18] of the same compound?
A: Its inhibition at 10 µM is 4%.

Q: And the inhibition at 10 µM [19]?
A: The inhibition at 10 µM was 47%.

Q: What about the inhibition at 10 µM [20] of the same compound?
A: The inhibition at 10 µM was 0%.

Q: What about the inhibition at 10 µM [21] of the same compound?
A: Its inhibition at 10 µM is 4%.

Q: What about the inhibition at 10 µM [22] of the same compound?
A: The inhibition at 10 µM was 0%.

Q: What about the inhibition at 10 µM [23] of the same compound?
A: The inhibition at 10 µM was 0%.

Q: And the inhibition at 10 µM [24]?
A: Its inhibition at 10 µM is 28%.

Q: And the inhibition at 10 µM [25]?
A: The inhibition at 10 µM was 0%.

Q: And the inhibition at 10 µM [26]?
A: The inhibition at 10 µM was 3%.

Q: What about the inhibition at 10 µM [27] of the same compound?
A: Its inhibition at 10 µM is 72%.

Q: What about the inhibition at 10 µM [28] of the same compound?
A: The inhibition at 10 µM was 58%.

Q: And the inhibition at 10 µM [29]?
A: The inhibition at 10 µM was 1%.

Q: What about the inhibition at 10 µM [30] of the same compound?
A: The inhibition at 10 µM was 3%.

Q: And the inhibition at 10 µM [31]?
A: Its inhibition at 10 µM is 20%.

Q: What about the inhibition at 10 µM [32] of the same compound?
A: The inhibition at 10 µM was 0%.

Q: What about the inhibition at 10 µM [33] of the same compound?
A: Its inhibition at 10 µM is 0%.
